“And” between values parts separate entries of the source, which are not always exact repeats. Identical values can stand only once. Like-named read-outs stand apart in the source and are kept apart here.
Experiments:
Test in all cases: Disk diffusion assay (zone of inhibition)
Type in all cases: cell-based, Staphylococcus aureus
hVISA NRS2 = settings: Staphylococcus aureus, NRS2, NRS2; for zone of inhibition at 1250 µg/mL: read-out: Inhibition zone diameter
Source text: (§1) The study was designed to identify conditions that improve oritavancin diffusion in agar and consequently yield a zone diameter ≧15 mm for the CLSI quality control strain MSSA ATCC 25923. Excipients that increased the disk diffusion of oritavancin in agar relative to disks containing only oritavancin were identified and selected for further study. […] A prediffusion step at room temperature was introduced to maximize oritavancin diffusion prior to initiation of bacterial growth. In this step, the antimicrobial disks were placed on agar plates seeded with a bacterial isolate and incubated at room temperature for 3 hours. Plates were then incubated overnight at 37° C. Zone diameters around the disks in which bacterial growth was inhibited were measured with a ruler and reported in millimeters.
(§2) Ethanol-sterilized Whatman paper disks (6 mm diameter) were allowed to dry then impregnated with 20 microliters of oritavancin solution containing total amounts ranging from 90 to 360 micrograms. Disks were allowed to dry at room temperature for various times prior to use.
(§3) Bacterial suspensions were prepared and adjusted to an optical density of 0.1 at 600 nm. Standard cation-adjusted Mueller Hinton agar plates (90 mm diameter) were seeded with bacterial suspensions by initially swabbing the center of plate then moving outward towards the edge. The plate was swabbed a second time, perpendicular to the orientation of the first swab. To assess the impact of prediffusion on diameter of inhibition zones, two disks were immediately placed on one half of the plate and the plate was incubated for 3 hours at room temperature. After 3 hours, two additional disks were placed on the other half of the plate then the plate was incubated overnight at 37° C. Zone diameters were measured with a ruler and reported in millimeters.
(§4) Oritavancin powder was dissolved in freshly-prepared solutions of the indicated excipients at concentrations of 0.625, 1.25, 2.5, 5, and 10 mg/ml (adjusted for potency based on lot 875561L00 purity of 83.1%) by vortexing for a minimum of 5 minutes. Oritavancin solutions in the various excipients, while not visually clear, were free from any apparent particulates as assessed visually. Sterile Oxoid blank disks were impregnated with 20 μl of these oritavancin solutions, resulting in oritavancin disk loads ranging from 12.5 to 200 μg. Unless indicated otherwise, disks were allowed to dry overnight at room temperature prior to use.
(§5) Bacterial suspensions from isolated colonies on overnight cation-adjusted Mueller Hinton agar plates were prepared in sterile saline and adjusted to an optical density of 0.1 at 600 nm Standard cation-adjusted Mueller Hinton agar plates (90 mm diameter) were seeded with bacterial suspensions by initially swabbing the center of plate then moving outward. Swabbing was continued at a right angle and then at an oblique angle to the first and second swabs. Disks were placed upon the seeded plates with sterile forceps. Plates were then incubated overnight at 37° C. and inhibition zone diameters were measured with a ruler and reported in millimeters.

MRSA U206056 = settings: for zone of inhibition at 360 µg/disc: read-out: Zone diameter (mm ± SD)
Source text: as §1, §2, §3, §4, §5

VISA NRS3 = settings: for zone of inhibition at 360 µg/disc: Staphylococcus aureus, 360 μg oritavancin, 3 h prediffusion, average of 2 disks, read-out: Average zone diameter
Source text: as §1, §2, §3, §4, §5

VISA NRS402 = settings: for zone of inhibition at 360 µg/disc: Staphylococcus aureus
Source text: as §1, §2, §3, §4, §5

[1] = 360 μg in 5% P80, Average of experiments, no prediffusion, read-out: Zone diameter (mm ± SD)
[2] = 360 μg in 5% P80, Average of experiments, prediffusion, read-out: Zone diameter (mm ± SD)
[3] = 360 μg in 5% P80, Experiment 1, disks stored 14 days, 3 h prediffusion at room temperature, read-out: Zone diameter (mm ± SD)
[4] = 360 μg in 5% P80, Experiment 2, disks stored 8 days, 3 h prediffusion at room temperature, read-out: Zone diameter (mm ± SD)
[5] = 360 μg oritavancin, excipient 5% P80, disks stored 5 days at room temperature, 3 h prediffusion, average of 2 disks, read-out: Average zone diameter
[6] = 25 μg (1.25 mg/ml) in 4% P80/Span 80 (1:1), dried overnight

## CN[C@H](CC(C)C)C(=O)N[C@H]1C(=O)N[C@@H](CC(N)=O)C(=O)N[C@H]2C(=O)N[C@H]3C(=O)N[C@H](C(=O)N[C@H](C(=O)O)c4cc(O)cc(O)c4-c4cc3ccc4O)[C@H](O[C@H]3C[C@](C)(N)[C@@H](O)[C@H](C)O3)c3ccc(c(Cl)c3)Oc3cc2cc(c3O[C@@H]2O[C@H](CO)[C@@H](O)[C@H](O)[C@H]2O[C@H]2C[C@](C)(NCc3ccc(-c4ccc(Cl)cc4)cc3)[C@@H](O)[C@H](C)O2)Oc2ccc(cc2Cl)[C@H]1O [oritavancin, N-(4-(4-chlorophenyl)benzyl)A82846B]
hVISA NRS2; [1]
  zone of inhibition at 360 µg/disc: 14.9 ± 0.8 mm
hVISA NRS2; [2]
  zone of inhibition at 360 µg/disc: 17.3 ± 0.3 mm
hVISA NRS2; [3]
  zone of inhibition at 360 µg/disc: 17.5 mm
hVISA NRS2; [4]
  zone of inhibition at 360 µg/disc: 17 mm
hVISA NRS2; [5]
  zone of inhibition at 360 µg/disc: 17.8 mm
hVISA NRS2; 20 μl of 1.25 mg/ml oritavancin in 1% poly(ethylene glycol) sorbitol hexaoleate
  zone of inhibition at 1250 µg/mL: 9 mm
hVISA NRS2; 20 μl of 1.25 mg/ml oritavancin in 5% Brij 30
  zone of inhibition at 1250 µg/mL: 8 mm
hVISA NRS2; 20 μl of 1.25 mg/ml oritavancin in 5% Merpol SE
  zone of inhibition at 1250 µg/mL: 11 mm
MRSA U206056; [6]
  Inhibition zone diameter: 17 mm and 18, 18 mm
MRSA U206056; Staphylococcus aureus, MRSA, 25 μg (1.25 mg/ml) in 4% P80/Span 80 (1:1), dried overnight, read-out: Inhibition zone diameter
  zone of inhibition at 25 µg/disc: 18 mm
MRSA U206056; Staphylococcus aureus, MRSA, 360 μg in 5% P80, Average of experiments, no prediffusion
  zone of inhibition at 360 µg/disc: 15 ± 0.6 mm
MRSA U206056; Staphylococcus aureus, MRSA, 360 μg in 5% P80, Average of experiments, prediffusion
  zone of inhibition at 360 µg/disc: 17.4 ± 0.5 mm
MRSA U206056; Staphylococcus aureus, MRSA, 360 μg in 5% P80, Experiment 1, disks stored 14 days, 3 h prediffusion at room temperature
  zone of inhibition at 360 µg/disc: 17.8 ± 0.4 mm
MRSA U206056; Staphylococcus aureus, MRSA, 360 μg in 5% P80, Experiment 2, disks stored 8 days, 3 h prediffusion at room temperature
  zone of inhibition at 360 µg/disc: 17 mm
MRSA U206056; Staphylococcus aureus, MRSA, 192 h, 360 μg in 5% P80, Experiment 2, disks stored 8 days, no prediffusion
  zone of inhibition at 360 µg/disc: 14.5 mm
MRSA U206056; Staphylococcus aureus, MRSA, 336 h, 360 μg in 5% P80, Experiment 1, disks stored 14 days, no prediffusion
  zone of inhibition at 360 µg/disc: 15.5 mm
VISA NRS3; [6]
  Inhibition zone diameter: no zone
VISA NRS3; excipient 5% P80, disks stored 5 days at room temperature
  zone of inhibition at 360 µg/disc: 14 mm
VISA NRS3; excipient 10% HPCD, disks made same day
  zone of inhibition at 360 µg/disc: 16.8 mm
VISA NRS402; [6]
  Inhibition zone diameter: no zone
VISA NRS402; [1]
  zone of inhibition at 360 µg/disc: 13.1 ± 0.3 mm
VISA NRS402; [2]
  zone of inhibition at 360 µg/disc: 14.5 ± 0.4 mm
VISA NRS402; [3]
  zone of inhibition at 360 µg/disc: 14.8 ± 0.4 mm
VISA NRS402; [4]
  zone of inhibition at 360 µg/disc: 14.3 ± 0.4 mm
VISA NRS402; [5]
  zone of inhibition at 360 µg/disc: 14.8 mm
VISA NRS402; 3 h, 360 μg oritavancin, excipient 10% HPCD, disks made same day, 3 h prediffusion, average of 2 disks, read-out: Average zone diameter
  zone of inhibition at 360 µg/disc: 17.5 mm
VISA NRS402; 192 h, 360 μg in 5% P80, Experiment 2, disks stored 8 days, no prediffusion, read-out: Zone diameter (mm ± SD)
  zone of inhibition at 360 µg/disc: 13 mm
VISA NRS402; 336 h, 360 μg in 5% P80, Experiment 1, disks stored 14 days, no prediffusion, read-out: Zone diameter (mm ± SD)
  zone of inhibition at 360 µg/disc: 13.3 ± 0.4 mm

Reference: patent US8815535B2, “Disk diffusion assay for oritavancin” (The Medicines Company, priority 2011, dated 2014)
